From patent publication US8071548B2, “Method of reducing injury to mammalian cells” (Nono, Inc., priority 2002, dated 2011)

Key:
traumatic brain injury = test: Lateral fluid percussion injury model of TBI; type: in vivo, Sprague-Dawley rats; conditions: analyzed 24 h after injury
Protocol: Adult male Sprague-Dawley rats weighing approximately 350 g were ordered from Charles River and anesthesia was induced using a gaseous mixture of 1:2 oxygen:nitrous oxide with 2% halothane. The halothane level was reduced to 1% during surgical manipulations and weights were recorded prior to preparatory surgery. The preparatory surgery for these experiments included the cannulation of the left femoral vein and a 5 mm diameter craniotomy. The venous cannula is sealed and tucked inside the animal whereupon the wound is sutured. The center of the craniotomy lies about 2.5 mm to the right of the sagittal suture, between the bregma and lambda. A modified Leur-loc is attached to the perimeter of the craniotomy with superglue (FIG. 28).
Dental acrylic (GC America Inc, Alsip, Ill.) is applied around the modified Leur-loc to seal it into place. A small piece of gelfoam is placed into the opening and the skin is sutured over the entire setup. The animal is then returned to its cage. The following day, the animal is re-anesthetized, weighed, and its wound is re-opened. The gelfoam is removed and the animal is attached to the fluid percussion device via the modified Leur-loc. At this time, the animal is given a ˜20 ms saline injection at approximately 2.4 atmospheres (350 mV on the oscilloscope) using the fluid percussion injury device (Custom Design & Fabrication, Richmond, Va.) (FIG. 29).
On occasion, the animal ceases spontaneous breathing following the injury and 1-2 chest compressions are required for resuscitation. The modified Leur-loc along with the dental acrylic is removed en bloc immediately following the injury. The animal is placed on 100% oxygen while its wound is cleaned and resealed with Vetbond tissue adhesive (3M Worldwide, Maplewood, Minn.). The rat's body temperature during the recovery time is maintained at 37° C. with a homeothermic warming blanket (Harvard Bioscience Inc, Holliston, Mass.). The amount of time necessary for the righting reflex to return is recorded and the animal is placed back into its cage. At 3 h post-injury, the animal is re-anesthetized and weighed again. The wound overlying the femoral cannula is opened and the cannula is cleaned out using heparinized saline. […] The cannula is sealed, tucked again into the animal, and the wound is re-sutured. At 24 h post-injury, the animal is re-anesthetized and weighed again. The rat is transcardially perfused using heparinized saline to clean out the cardiovascular system, followed by a 4% formalin fixative solution. The rat is decapitated and left in the fixative solution overnight. The brain is extracted the following day and processed. The volume of damaged brain (FIG. 26, right graph) is assessed according to the same methods as described in Aarts et al., 2002, for assessing stroke volumes. […]

[1] = tested on: cortical neuronal cultures; test: Sublethal stretch injury with or without NMDA, cell death in cortical cultures; type: cell-based
Protocol: […]. In brief, cerebral cortices from 10 to 12 embryos were incubated for 10 min in 0.05% trypsin-EDTA, dissociated by trituration, and plated on flexible membranes coated with poly-L-ornithine in 6 well plates (Flexcell International Corporation, Hillsborough, N.C.) at a density of 3.25×10^6 cells per well. Plating medium consisted of DMEM supplemented with 10% heat-inactivated horse serum (Gibco) and (in mM) 2 glutamine, 25 glucose, and 26 bicarbonate. The cultures were maintained at 37° C. in a humidified 5% CO2 atmosphere. After 3 days in vitro, growth of non-neuronal cells was halted by a 48 h exposure to 10 μM FDU-solution (5 μM uridine, 5 μM (+)-5-fluor-2′-deoxyuridine). This produces cultures in which >85% of the cells are neurons, based on immunohistochemical staining for glial fibrillary associated protein (exclusive to astrocytes), and for the NMDAR1 subunit (not shown). The cultures were used for experiments after 12-14 days in vitro.
The cultures, grown on silastic membranes as above, were placed in the Flexercell® FX-3000™ Strain Unit (Flexcell Int., Inc.), a computer-driven instrument that uses a vacuum pulse to deform the culture substrate. In all experiments, the cortical cultures were stretched to 130% of their original length for 1 s, inducing a sublethal injury as recently characterized by us (Arundine et al., 2003). The stretched neurons maintained cell membrane integrity, viability, and electrophysiological function.
Cell death was determined by serial quantitative measurements of propidium iodide (PI) fluorescence using a multiwell plate fluorescence scanner (Cytofluor II, PerSeptive Biosytems, Framingham, Mass., USA) as described previously (Sattler et al., 1997; Sattler et al., 1998). In brief, the culture medium in each tissue culture well was replaced with control solution containing 50 μg/ml PI, and a baseline fluorescence reading was taken. Sequential readings were then taken at appropriate intervals over the 20 h observation period. The fraction of dead cells in each culture at a given time was calculated as: Fraction dead=(Ft−Fo)/FNMDA Where Ft=PI fluorescence at time t, F0=initial PI fluorescence at time zero and FNMDA=background subtracted PI fluorescence of identical cultures from the same dissection and plating, 20-24 h after a 60 min exposure to 1 mM NMDA at 37° C. Based on manual observations at the time of validation of this technique, this NMDA exposure routinely produced near complete neuronal death in each culture but had no effect on surrounding glia (also see (Bruno et al., 1994; David et al., 1996; Sattler et al., 1997)). Adding Triton X-100 (0.1%) to cultures treated in this manner produced an additional 10-15% increase in PI fluorescence due to permeabilization of non-neuronal cell membranes, consistent with a 10-15% glial component in the cultures.
All experiments were performed at 37° C. Unless otherwise indicated, all solutions contained nimodipine (2 μM) and CNQX (10 μM) to restrict the actions of applied NMDA to NMDARs by preventing the secondary activation of other pathways (Sattler et al., 1998). In general, the cultures were washed ×2 with control solution and immediately stretched to 130% of their original length for 1 s. After the stretch, they were washed ×1 with control solution alone or challenged with an additional treatment (e.g., NMDA) and placed at 37° C. for 1 h. They were then washed ×1 with control solution and then with control solution containing 50 μg/ml PI to obtain a baseline reading. In pilot studies, baseline readings obtained at this stage were similar to those obtained by staining the cells with PI prior to stretch. As the stretch causes splashing of the bath solution, staining with PI after stretch reduced biohazard potential and artifacts associated with PI outside the culture well. Unstretched controls were manipulated identically to stretched cultures.

For Tat-KLSSIESDV [Tat-NR2B9c], the “total volume of injured brain” value (traumatic brain injury; 3 hours after TBI) was “significantly reduced”, the “fraction of dead cells in cerebral cortex and hippocampus ipsilateral to the injury” value (traumatic brain injury; via femoral cannula 3 hours after TBI) was “markedly reduced fraction of dead cells” and the “toxic effects in control or stretched cultures” value ([1]; 50 nM) was “no toxic effects”. The “heightened vulnerability of stretched cultures to NMDA toxicity, pre-treatment” value ([1]; 50 nM 30 min prior to stretch, NMDA 30 μM 1 h, cell death at 20 h) was “completely abolished” and the “enhanced cell mortality in stretched neurons by NMDA challenge, post-treatment” value ([1]; 50 nM applied after terminating the 1 h NMDA challenge) was “reduced the enhanced cell mortality”.
